Legend:
[1] = tested on: E. coli S30 extract (bacterial protein synthesis); experiment: E. coli S30 extract coupled transcription-translation luciferase assay (inhibition of bacterial protein synthesis); format: biochemical; conditions: class by IC50 or % inhibition @ 1 μM, read-out: S30 IC50 (μM/% inhib.)
Procedure, shortened: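 Luciferase luminescence quantified inhibition of protein synthesis relative to water controls, with no-DNA reactions giving background. Compounds in 2-fold serial dilution (8 levels) were incubated 1 hour at 37 °C with E. coli S30 extract, amino acids and pBESTluc plasmid, then chilled to stop.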

[2] = molecular target: Rabbit Reticulocyte Lysate (eukaryotic protein synthesis); experiment: Rabbit reticulocyte lysate luciferase assay (inhibition of eukaryotic protein synthesis); format: biochemical; conditions: class by IC50 or % inhibition @ 1 μM, read-out: Rabbit reticulocyte IC50 (μM/% inhib.)
Procedure, shortened: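 Percent inhibition calculated against water-only controls from luminescence; background set by lysate lacking RNA. Compounds, 8-point 2-fold titration, incubated 90 minutes at 30° C with nuclease-treated rabbit reticulocyte lysate programmed with luciferase control RNA plus complete amino acids.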

E. coli (Ec) = experiment: Broth microdilution minimum inhibitory concentration (MIC), CLSI; format: cell-based; conditions: Escherichia coli, growth medium supplemented with sodium bicarbonate, read-out: E. coli + bicarb MIC
Procedure, shortened: (§1)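 Two-fold serial dilutions in CAMHB, optionally with sodium bicarbonate (6.25 or 25 mM final) or heat-inactivated human serum (0-50%), 8 concentrations, triplicate. Inoculum 5×10^4 CFU/well from log-phase cultures grown at 35±2 °C to 0.5 McFarland.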

P. aeruginosa (Pa) = experiment: as above; format: cell-based; conditions: Pseudomonas aeruginosa, growth medium supplemented with sodium bicarbonate, read-out: Pa MIC + bicarb
Procedure, shortened: as §1

E. faecalis (Ef) = experiment: as above; format: cell-based; conditions: Enterococcus faecalis, growth medium supplemented with sodium bicarbonate, read-out: Ef + bicarb MIC
Procedure, shortened: as §1

S. aureus (Sa) = experiment: as above; format: cell-based; conditions: Staphylococcus aureus, growth medium supplemented with sodium bicarbonate, read-out: Sa + bicarb MIC
Procedure, shortened: as §1

A. baumannn (Ab) = experiment: as above; format: cell-based; conditions: Acinetobacter baumannii, read-out: Ab + bicarb MIC
Procedure, shortened: as §1

CC(C)(N)C(=O)N1CCN(C(=O)Nc2ccn(-c3ccc(CN4C[C@@H]5[C@H](C4)[C@H]5C(N)=O)cc3)c(=O)n2)CC1 [Compound 74] was tested. Which IC50 [1] did it give?
Its IC50 is ≥ 1 µM.

What about the IC50 [2] of the same compound?
Its IC50 is ≥ 1 µM.

What about the MIC (E. coli (Ec)) of the same compound?
Its MIC is 8 to 32 µg/mL.

And the MIC (P. aeruginosa (Pa))?
The MIC was > 32 µg/mL.

And the MIC (E. faecalis (Ef))?
The MIC was > 32 µg/mL.

What about the MIC (S. aureus (Sa)) of the same compound?
The MIC was 8 to 32 µg/mL.

And the MIC (A. baumannn (Ab))?
Its MIC is > 32 µg/mL.

For CNC[C@@H]1[C@H]2CN(Cc3ccc(-n4ccc(NC(=O)N5CCN(C(=O)C(C)(C)N)CC5)nc4=O)cc3)C[C@@H]12 [Compound 75], which IC50 [1] is on record?
The IC50 was < 0.5 µM.

And the IC50 [2]?
The IC50 was ≥ 1 µM.

What about the MIC (E. coli (Ec)) of the same compound?
Its MIC is < 8 µg/mL.

What about the MIC (P. aeruginosa (Pa)) of the same compound?
The MIC was > 32 µg/mL.

What about the MIC (E. faecalis (Ef)) of the same compound?
The MIC was 8 to 32 µg/mL.

And the MIC (S. aureus (Sa))?
The MIC was < 8 µg/mL.

And the MIC (A. baumannn (Ab))?
Its MIC is > 32 µg/mL.

What does the source list for CC(C)(N)C(=O)N1CCN(C(=O)Nc2ccn(-c3ccc(CN4CCC5(CCNC5)C4)cc3)c(=O)n2)CC1 (stereo not shown) [Compound 80]?
IC50 [1]: < 0.5 µM; IC50 [2]: ≥ 1 µM; MIC (E. coli (Ec)): < 8 µg/mL; MIC (P. aeruginosa (Pa)): > 32 µg/mL; MIC (E. faecalis (Ef)): > 32 µg/mL; MIC (S. aureus (Sa)): < 8 µg/mL; MIC (A. baumannn (Ab)): > 32 µg/mL

What does the source list for CC(C)(N)C(=O)N1CCN(C(=O)Nc2ccn(-c3ccc(CN4CCC5(CC4)CNC5)cc3)c(=O)n2)CC1 [Compound 83]?
IC50 [1]: 0.5 to 1 µM; IC50 [2]: ≥ 1 µM; MIC (E. coli (Ec)): < 8 µg/mL; MIC (P. aeruginosa (Pa)): > 32 µg/mL; MIC (E. faecalis (Ef)): > 32 µg/mL; MIC (S. aureus (Sa)): < 8 µg/mL; MIC (A. baumannn (Ab)): > 32 µg/mL

Which IC50 [1] does the source give for CC(C)(N)C(=O)N1CCN(C(=O)Nc2ccn(-c3ccc(CCN4CCC5(CC4)CC5N)cc3)c(=O)n2)CC1 (stereo not shown) [Compound 94] here?
Its IC50 is < 0.5 µM.

And the IC50 [2]?
The IC50 was ≥ 1 µM.

What about the MIC (E. coli (Ec)) of the same compound?
The MIC was < 8 µg/mL.

What about the MIC (P. aeruginosa (Pa)) of the same compound?
Its MIC is 8 to 32 µg/mL.

And the MIC (E. faecalis (Ef))?
The MIC was 8 to 32 µg/mL.

And the MIC (S. aureus (Sa))?
The MIC was < 8 µg/mL.

What about the MIC (A. baumannn (Ab)) of the same compound?
The MIC was > 32 µg/mL.

What does the source list for CC(C)(N)C(=O)N1CCN(C(=O)Nc2ccn(-c3ccc(CCN4CCC5(CCC5N)CC4)cc3)c(=O)n2)CC1 (stereo not shown) [Compound 95]?
IC50 [1]: < 0.5 µM; IC50 [2]: ≥ 1 µM; MIC (E. coli (Ec)): < 8 µg/mL; MIC (P. aeruginosa (Pa)): > 32 µg/mL; MIC (E. faecalis (Ef)): > 32 µg/mL; MIC (S. aureus (Sa)): < 8 µg/mL; MIC (A. baumannn (Ab)): > 32 µg/mL

How did the IC50 [1] turn out when CC(C)(N)C(=O)N1CCN(C(=O)Nc2ccn(-c3ccc(CCN4CC5CC(N)C5C4)cc3)c(=O)n2)CC1 (stereo not shown) [Compound 96] was run?
Its IC50 is < 0.5 µM.

What about the IC50 [2] of the same compound?
The IC50 was ≥ 1 µM.

And the MIC (E. coli (Ec))?
The MIC was < 8 µg/mL.

What about the MIC (P. aeruginosa (Pa)) of the same compound?
The MIC was 8 to 32 µg/mL.

What about the MIC (E. faecalis (Ef)) of the same compound?
Its MIC is < 8 µg/mL.

And the MIC (S. aureus (Sa))?
Its MIC is < 8 µg/mL.

And the MIC (A. baumannn (Ab))?
Its MIC is > 32 µg/mL.

What does the source list for C[C@@](N)(CO)C(=O)N1CCN(C(=O)Nc2ccn(-c3ccc(CCN4CCC5CC5(N)C4)cc3)c(=O)n2)CC1 (stereo partly shown) [Compound 99]?
IC50 [1]: 0.5 to 1 µM; IC50 [2]: ≥ 1 µM; MIC (E. coli (Ec)): < 8 µg/mL; MIC (P. aeruginosa (Pa)): > 32 µg/mL; MIC (E. faecalis (Ef)): 8 to 32 µg/mL; MIC (S. aureus (Sa)): < 8 µg/mL; MIC (A. baumannn (Ab)): > 32 µg/mL

CC(C)(N)C(=O)N1CCN(C(=O)Nc2ccn(-c3ccc(CCN4CCC5CC5(N)C4)c(F)c3)c(=O)n2)CC1 (stereo not shown) [Compound 100] was tested. Which IC50 [1] did it give?
Its IC50 is < 0.5 µM.

And the IC50 [2]?
The IC50 was ≥ 1 µM.

And the MIC (E. coli (Ec))?
The MIC was < 8 µg/mL.

And the MIC (P. aeruginosa (Pa))?
The MIC was > 32 µg/mL.

And the MIC (E. faecalis (Ef))?
Its MIC is < 8 µg/mL.

What about the MIC (S. aureus (Sa)) of the same compound?
The MIC was < 8 µg/mL.

What about the MIC (A. baumannn (Ab)) of the same compound?
The MIC was 8 to 32 µg/mL.

Which IC50 [1] does the source give for Cc1cc(-n2ccc(NC(=O)N3CCN(C(=O)C(C)(C)N)CC3)nc2=O)ccc1CCN1CCC2CC2(N)C1 (stereo not shown) [Compound 101] here?
Its IC50 is < 0.5 µM.

What about the IC50 [2] of the same compound?
The IC50 was ≥ 1 µM.

What about the MIC (E. coli (Ec)) of the same compound?
Its MIC is < 8 µg/mL.

What about the MIC (P. aeruginosa (Pa)) of the same compound?
Its MIC is > 32 µg/mL.

And the MIC (E. faecalis (Ef))?
The MIC was < 8 µg/mL.

What about the MIC (S. aureus (Sa)) of the same compound?
Its MIC is < 8 µg/mL.

What about the MIC (A. baumannn (Ab)) of the same compound?
Its MIC is 8 to 32 µg/mL.

CC(C)(N)C(=O)N1CCN(C(=O)Nc2ccn(-c3ccc(CCN4C[C@@H]5[C@@H](CN)[C@@H]5C4)c(C(F)(F)F)c3)c(=O)n2)CC1 [Compound 102] was tested. Which IC50 [1] did it give?
The IC50 was < 0.5 µM.

And the IC50 [2]?
Its IC50 is ≥ 1 µM.

And the MIC (E. coli (Ec))?
Its MIC is < 8 µg/mL.

And the MIC (P. aeruginosa (Pa))?
Its MIC is 8 to 32 µg/mL.

And the MIC (E. faecalis (Ef))?
Its MIC is 8 to 32 µg/mL.

And the MIC (S. aureus (Sa))?
Its MIC is < 8 µg/mL.

And the MIC (A. baumannn (Ab))?
The MIC was > 32 µg/mL.

For CC(C)(N)C(=O)N1CCN(C(=O)Nc2ccn(-c3ccc(CCN4CCC5CC5(N)C4)c(C(F)(F)F)c3)c(=O)n2)CC1 (stereo not shown) [Compound 103], which IC50 [1] is on record?
Its IC50 is 0.5 to 1 µM.

What about the IC50 [2] of the same compound?
Its IC50 is ≥ 1 µM.

What about the MIC (E. coli (Ec)) of the same compound?
The MIC was 8 to 32 µg/mL.

What about the MIC (P. aeruginosa (Pa)) of the same compound?
The MIC was > 32 µg/mL.

What about the MIC (E. faecalis (Ef)) of the same compound?
Its MIC is 8 to 32 µg/mL.

What about the MIC (S. aureus (Sa)) of the same compound?
Its MIC is 8 to 32 µg/mL.

What about the MIC (A. baumannn (Ab)) of the same compound?
Its MIC is > 32 µg/mL.

What does the source list for CC(C)(N)C(=O)N1CCN(C(=O)Nc2ccn(-c3ccc(C(N)C(=O)N4C[C@@H]5[C@@H](N)[C@@H]5C4)cc3)c(=O)n2)CC1 (stereo partly shown) [Compound 105]?
IC50 [1]: ≥ 1 µM; IC50 [2]: ≥ 1 µM; MIC (E. coli (Ec)): > 32 µg/mL; MIC (P. aeruginosa (Pa)): > 32 µg/mL; MIC (E. faecalis (Ef)): > 32 µg/mL; MIC (S. aureus (Sa)): > 32 µg/mL; MIC (A. baumannn (Ab)): > 32 µg/mL

Reference: patent publication US12692253B2, “Antimicrobial compounds and methods” (Curza Global, LLC, priority 2019, dated 2026)
